Assays:
carbonyl reductase [1] = assay: Substrate specificity: reductase activity with various ketones and aldehydes in the presence of a coenzyme; format: biochemical, Kluyveromyces aestuarii; parameters: concentration or dose not given beside the values; details: reduction reaction, ethyl 4-chloroacetoacetate with NADH taken as 100
Protocol: (§1) A decrease of absorbance at 340 nm, following a decrease of NADH, is measured during the reaction at 30 in a reaction mixture containing 50 mM potassium phosphate buffer (pH 6.5), 0.2 mM NADH, 20 mM ethyl 4-chloroacetoacetate, and the enzyme. One unit of the enzyme of the present invention is defined as the amount required to decrease […] of NADH in 1 min. A protein is quantitated by the dye-binding method using a Protein Assay Kit (BioRad).
(§2) The reductase activity of the enzyme obtained in Example 1 was measured by reacting the enzyme with various ketones and aldehydes in the presence of a coenzyme. The results are shown in Table 2 as the activity relative to that of ethyl 4-chloroacetoacetate in the presence of NADH that is taken as 100.

carbonyl reductase [2] = assay: Substrate specificity: NAD+-dependent dehydrogenase (oxidation) activity; format: biochemical, Kluyveromyces aestuarii; parameters: Relative activity (%): concentration or dose not given beside the values; details: for Relative activity (%): oxidation reaction, coenzyme NAD+, reduction of ethyl 4-chloroacetoacetate with NADH taken as 100; for NAD+-dependent dehydrogenase activity (in words): substrate with NAD+
Protocol: The enzyme contacts the substrate, 4-halo-3-hydroxybutyrate ester, in the presence of NAD^+, and the change (per unit time) of the absorbance at 340 nm, which is accompanied with an increase or decrease of NADH, is measured.
as §2

carbonyl reductase [3] = assay: Influence of inhibitors on the carbonyl reductase (residual reductase activity); format: biochemical, Kluyveromyces aestuarii; details: for Residual activity: 30, 10 min, activity without any reagent taken as 100
Protocol: as §1
The enzyme obtained in Example 1 was incubated at 30 for 10 min in the presence of various reagents, and its reductase activity to […] was measured. The results are shown in Table 3 as the residual activity to that obtained without any reagent that is taken as 100.

[4] = format: physicochemical, Kluyveromyces aestuarii
Protocol: The enzyme obtained in Example 1 was incubated at pH 8.0 for 10 min at 30, 37, 45, 50, and 55; the reductase activity of each incubation mixture to ethyl 4-chloroacetoacetate was then measured. The results are shown in FIG. 5 as the residual activity to the activity of the untreated enzyme that is taken as 100.

[5] = 4-chloroacetoacetate ester-reducing activity of the purified enzyme; format: biochemical, Kluyveromyces aestuarii; details: 20 mM ethyl 4-chloroacetoacetate, 0.2 mM NADH, pH 6.5; after Superdex 200
Protocol: as §1
Kluyveromyces aestuarii IFO 10597 was cultured in 20 L of YM medium containing 24 g/L glucose, 3 g/L yeast extract, 3 g/L malt extract, and 5 g/L peptone (pH 6.0). The cultured cells were harvested by centrifugation. […]
The activity of the carbonyl reductase was detected in three fractions, a passed-through fraction and two gradient-eluted fractions. […]
The concentrated enzyme solution was adjusted to 20% saturation with ammonium sulfate and was applied to a butyl-Toyopearl 650M column (1.6 cm×5 cm) equilibrated with the standard buffer containing 20% saturation ammonium sulfate. […] The peak of the activity of the carbonyl reductase was detected in two eluted fractions. […]
The active fractions obtained by gel filtration were concentrated and analyzed by polyacrylamide gel electrophoresis (PAGE). The enzyme was detected as a substantially single band (FIG. 1). […]

## CC(=O)C(C)=O [2,3-butandione]
Carbonyl reductase [1]; coenzyme NADH
  Relative activity (%): 70.6%

## CCC(=O)C(C)=O [2,3-pentandione]
Carbonyl reductase [1]; coenzyme NADH
  Relative activity (%): 8.2%

## CC(=O)CC(C)=O [2,4-pentandione]
Carbonyl reductase [1]; coenzyme NADH
  Relative activity (%): 0%

## CC(=O)c1ccccc1 [Acetophenone]
Carbonyl reductase [1]; coenzyme NADH
  Relative activity (%): 0%

## CC(C)O [Isopropanol]
Carbonyl reductase [2]
  Relative activity (%): 0%
  NAD+-dependent dehydrogenase activity (in words): does not substantially dehydrogenate

## CC(=O)C=O [Methylglyoxal]
Carbonyl reductase [1]; coenzyme NADH
  Relative activity (%): 0%

## O=S(=O)(F)Cc1ccccc1 [Phenylmethanesulfonyl fluoride]
Carbonyl reductase [3]; inhibitor 1 mM
  Residual activity: 99.0

## CCC=O [Propionaldehyde]
Carbonyl reductase [1]; coenzyme NADH
  Relative activity (%): 2.5%

## CCC1(CC)C(=O)NC(=O)NC1=O [barbital]
Carbonyl reductase [3]
  Inhibition of the carbonyl reductase (in words): not and not inhibited
Carbonyl reductase [3]; inhibitor 1 mM
  Residual activity: 101

## O=S(=O)([O-])[O-].[Cu+2] [copper sulfate]
Carbonyl reductase [3]
  Inhibition of the carbonyl reductase (in words): significantly inhibited
Carbonyl reductase [3]; inhibitor 1 mM
  Residual activity: 19.0

## CCOC(=O)CC(=O)CCl [ethyl 4-chloroacetoacetate]
Carbonyl reductase [1]; coenzyme NADH
  Relative activity (%): 100%
Carbonyl reductase [1]; coenzyme NADPH
  Relative activity (%): 6.4%

## CCOC(=O)C[C@@H](C)O [ethyl (R)-3-hydroxybutyrate]
Carbonyl reductase [2]
  Relative activity (%): 1.9%

## CCOC(=O)C[C@@H](O)CCl [ethyl (R)-4-chloro-3-hydroxybutyrate]
Carbonyl reductase [2]
  Relative activity (%): 0%
  NAD+-dependent dehydrogenase activity (in words): did not show any

## CCOC(=O)C[C@H](C)O [ethyl (S)-3-hydroxybutyrate]
Carbonyl reductase [2]
  Relative activity (%): 0%

## CCOC(=O)C[C@H](O)CCl [ethyl (S)-4-chloro-3-hydroxybutyrate]
Carbonyl reductase [2]
  Relative activity (%): 0%
  NAD+-dependent dehydrogenase activity (in words): did not show any

## CCOC(=O)CC(C)=O [ethyl acetoacetate]
Carbonyl reductase [1]; coenzyme NADH
  Relative activity (%): 0%

## NC(=O)CI [iodoacetamide]
Carbonyl reductase [3]
  Inhibition of the carbonyl reductase (in words): weakly inhibited
Carbonyl reductase [3]; inhibitor 1 mM
  Residual activity: 84.0

## COC(=O)CC(=O)CCl [methyl 4-chloroacetoacetate]
Carbonyl reductase [1]; coenzyme NADH
  Relative activity (%): 13.1%

## COC(=O)CC(C)=O [methyl acetoacetate]
Carbonyl reductase [1]; coenzyme NADH
  Relative activity (%): 0%

## O=C(O)c1cc[c]([Hg][Cl])cc1 [p-chloromercuribenzoic acid]
Carbonyl reductase [3]
  Inhibition of the carbonyl reductase (in words): significantly inhibited
Carbonyl reductase [3]; inhibitor 0.05 mM
  Residual activity: 0

## O=Cc1cccnc1 [pyridin-3-aldehyde]
Carbonyl reductase [1]; coenzyme NADH
  Relative activity (%): 0%

## O=c1c(O)c(-c2ccc(O)c(O)c2)oc2cc(O)cc(O)c12 [quercetin]
Carbonyl reductase [3]
  Inhibition of the carbonyl reductase (in words): not and not inhibited
Carbonyl reductase [3]; inhibitor 0.1 mM
  Residual activity: 94.0

B1: carbonyl reductase: NADH-dependent carbonyl reductase purified from Kluyveromyces aestuarii IFO 10597; amino acid sequence SEQ ID NO: 2 (protein, listed as Kluyveromyces aestuarii)
chain: MTFQHFLRGGLEDKTVPQEPPKEQYPDGVNYLSLFSQKGKLTVITGGAGAIGGALCEGFASCGSDVVILDYKYSPELSSVLESRYGVRSKSYQVDITSSEDVKLVVAKILEDFPDRDINTFVANAGIAWTNGSILNENATPDVWKRVMDVNVQGTYHCAKYVAEVFKQQGHGNLILTASMSSYISNVPNYQTCYNASKAAVRHMAKGFAVEFAHLTNPAGKIRCNSVSPGYTDTALSAFVPVEQRAQWWGLTPMGREALPQELVGAYLYLASDAASFTNGCDIQVDGGYTCV
[4]
  Thermostability (relatively stable up to): up to 40
[4]; pH 8.0, 10 min, up to 37, untreated enzyme taken as 100
  Residual activity after heat incubation: ≥ 75%
[5]
  Specific activity of the purified enzyme: about 28.6 U/mg

Reference: US6969600B2, “Carbonyl reductase, method for producing said enzyme, DNA encoding said enzyme, and method for producing alcohol using said enzyme” (Daicel Chemical Industries, Ltd., priority 1998, dated 2005)
